Calls of active or inactive are those of the source.
How the values were obtained:
[1] = test system: T-cell; assay: loss of vesicle association with mouse CD8+ T cells – mouse 2C CD8+ T cells, flow cytometry, dose response (AID 485284); type: functional
[2] = molecular target: Perilipin-1/ABHD5 (Homo sapiens, UniProt O60240+Q8WTS1); assay: Luminescence-based biochemical high throughput dose response assay for inhibitors of the interaction of the lipase co-activator protein, abhydrolase domain containing 5 (ABHD5) with perilipin-1 (PLIN1) (2K validation set). [Related pubchem assays (depositor defined):AID493027, AID493057]
[3] = molecular target: 1-acylglycerol-3-phosphate O-acyltransferase ABHD5/Perilipin-5 (Homo sapiens, UniProt Q00G26+Q8WTS1); assay: Luminescence-based biochemical high throughput dose response assay for inhibitors of the interaction of the lipase co-activator protein, abhydrolase domain containing 5 (ABHD5) with perilipin-5 (MLDP; PLIN5) (2K validation set). [Related pubchem assays (depositor defined):AID493035, AID493241]
[4] = molecular target: Induced myeloid leukemia cell differentiation protein Mcl-1 (Homo sapiens, UniProt Q07820); type: functional
[5] = A549 cell cytotoxicity, dose response, cytotoxicity control, plate reader, cherry-pick, antagonist series (AID 743412); type: functional, cell-based
[6] = molecular target: Melanocortin receptor 4 (Homo sapiens, UniProt P32245); type: functional, cell-based;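 note: Cell-based assay with luminescence read-out, confirmatory dose-response testing for agonist activity of biased ligands at MC4R; human U2OS cells with tagged receptor and beta-arrestin; potency of agonists that increase receptor coupling to beta-arrestin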
[7] = Luminescence Cell-Based Dose Retest to Confirm Inhibitors of Cancer Stem Cells. [Related pubchem assays (depositor defined):AID2717, AID2721]; type: functional; details: Homo sapiens
[8] = blockade of melanocortin 4 receptor signaling – cell-based, plate reader, cherry pick, counter-screen for LGR2 antagonist project, dose response (AID 743444); type: functional;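 note: transfected HEK 293 cells stimulated with alpha-MSH peptide; potency of inhibitors of the alpha-MSH evoked signal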
[9] = blockers of bursicon-stimulated LGR2 cAMP reporter – cell-based, HEK293, CRE-luciferase reporter, cherry pick, set 2, dose response (AID 743343); type: functional;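 note: transfected cells were stimulated with diluted bursicon conditioned medium after compound addition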
[10] = molecular target: T1, Ubiquitin-conjugating enzyme E2 N (Homo sapiens, UniProt P61088); type: functional;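 note: Dose-response confirmation in a TR-FRET assay detecting UBC13-driven polyubiquitin chain formation, inhibition measured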
T1 sequence (P61088 whole entry): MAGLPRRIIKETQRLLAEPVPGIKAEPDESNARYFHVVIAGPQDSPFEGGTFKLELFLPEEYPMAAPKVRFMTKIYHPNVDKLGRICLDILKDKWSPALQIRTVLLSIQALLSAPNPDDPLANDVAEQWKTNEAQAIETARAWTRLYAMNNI

[11] = viability loss in HEK293 cells – cell-based, plate reader, cherry-picked samples, cytotoxicity control, dose response (AID 743446); type: functional
[12] = molecular target: Integrin alpha-4 (Homo sapiens, UniProt P13612); assay: allosteric modulators of alpha4 integrin VLA-4 – cell-based, LIBS antibody binding, flow cytometry, SAR follow-up (AID 488791); type: functional
[13] = toxicity toward HepG2 liver cells – cell-based, plate reader, cherry-pick, antagonist series, cytotoxicity control, dose response (AID 743416); type: functional
[14] = molecular target: Eukaryotic translation initiation factor 4H (Homo sapiens, UniProt Q15056); assay: eIF4H binding inhibition – biochemical, uHTS, fluorescence polarization, translation initiation inhibitor project, primary screen (AID 2012)
[15] = molecular target: T2, Voltage-gated N-type calcium channel alpha-1B subunit/Amyloid beta A4 precursor protein-binding family A member 1 (Homo sapiens, UniProt Q00975+Q02410); type: protein assay
[16] = molecular target: Polyadenylate-binding protein 1 (Homo sapiens, UniProt P11940); assay: blockers of PABP interaction with poly(A) – biochemical, fluorescence polarization, […] (AID 2014)
[17] = molecular target: T2, Voltage-gated N-type calcium channel alpha-1B subunit/Amyloid beta A4 precursor protein-binding family A member 1; type: protein assay; remark: listed apart in the source
[18] = cells
[19] = molecular target: Nucleotide-binding oligomerization domain-containing protein 2 (Homo sapiens, UniProt Q9HC29); assay: inhibition of NOD2-driven NF-kB reporter – cell-based, luminescence, uHTS, HEK293 (AID 1566); type: functional
[20] = test system: HEK293; assay: cells; type: functional, cell-based; details: Homo sapiens
[21] = NIH3T3 cell viability loss – ATP luminescence, mouse fibroblasts, counter-screen, dose response (AID 2010); type: functional, cell-based;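 note: cells exposed to compound for about 90 hours before reading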
[22] = test system: BJ; assay: cells; type: functional, cell-based; details: Homo sapiens
[23] = Trypanosoma cruzi growth suppression in host cells – NIH3T3 host cells, beta-gal luminescence, confirmation (AID 2044); type: functional, cell-based;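 note: intracellular parasites grown in NIH/3T3 mouse fibroblasts as host cells; luminescent beta-galactosidase reporter signal from transgenic T. cruzi replicating inside host cells; inhibitors lower the luminescence signal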
[24] = molecular target: Protein S100-A4 (Homo sapiens, UniProt P26447); assay: human S100A4 peptide interaction inhibition curves – biochemical, fluorescence polarization, cherry-picked hits, dose response (AID 687001); type: functional
[25] = molecular target: G-protein coupled receptor 55 (Homo sapiens, UniProt Q9Y2T6); assay: selective activators of receptor GPR55 – imaging, U2OS cells, beta-arrestin-GFP redistribution, primary screen (AID 1961); type: functional
[26] = test system: HEK293; assay: NOD2 signaling inhibitors in MDP-stimulated cells, cell-based, uHTS, luminescence (AID 2001); type: functional; details: Homo sapiens
[27] = DRD fibroblast viability loss – cell-based, non-viral oncogenic, luminescence, dose response (AID 1934); type: functional; details: Homo sapiens
[28] = NIH-3T3 fibroblast cytotoxicity, dose response, cytotoxicity control, cell-based, fluorescence, Alamar Blue, secondary assay (AID 2327); type: functional;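 note: NIH-3T3 mouse fibroblasts cultured with fluconazole at 8 µg/mL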
[29] = fluconazole-exposed Candida albicans growth modulators – fluorescence, retest, confirmation (AID 2467); type: functional, cell-based
[30] = HEK-293T viability loss after treatment – luminescence, T-cell screen hits, cytotoxicity control for TCR NF-kB inhibitor project, dose response (AID 489026); type: functional, cell-based;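 note: cells exposed to compound about 14 hours before the viability readout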
[31] = test system: HEK293; assay: inhibition of NOD1-driven NF-kB reporter – cell-based, luminescence, uHTS, primary screen (AID 1578); type: functional; details: Homo sapiens
[32] = test system: BJ; assay: BJ-TERT fibroblast viability loss – cell-based, RAS-independent, luminescence, dose response (AID 1933); type: functional; details: Homo sapiens
[33] = test system: HEK293; assay: cells; type: functional, cell-based; details: Homo sapiens; remark: listed apart in the source
[34] = test system: HEK293; assay: cells; type: functional, cell-based; details: Homo sapiens; remark: listed apart in the source
[35] = test system: BJ; assay: BJ-TERT-LT-ST fibroblast viability loss – cell-based, RAS-independent, luminescence, dose response (AID 1935); type: functional; details: Homo sapiens;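 note: BJ fibroblasts immortalized with TERT plus LT and ST oncogenes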
[36] = molecular target: Nonstructural protein 1 (Influenza A virus, UniProt Q194T2); type: functional, Influenza A virus (A/California/07/2009(H1N1))
[37] = molecular target: T3, Histone-lysine N-methyltransferase NSD2 (Homo sapiens, UniProt O96028); type: biochemical
T3 sequence (O96028 whole entry): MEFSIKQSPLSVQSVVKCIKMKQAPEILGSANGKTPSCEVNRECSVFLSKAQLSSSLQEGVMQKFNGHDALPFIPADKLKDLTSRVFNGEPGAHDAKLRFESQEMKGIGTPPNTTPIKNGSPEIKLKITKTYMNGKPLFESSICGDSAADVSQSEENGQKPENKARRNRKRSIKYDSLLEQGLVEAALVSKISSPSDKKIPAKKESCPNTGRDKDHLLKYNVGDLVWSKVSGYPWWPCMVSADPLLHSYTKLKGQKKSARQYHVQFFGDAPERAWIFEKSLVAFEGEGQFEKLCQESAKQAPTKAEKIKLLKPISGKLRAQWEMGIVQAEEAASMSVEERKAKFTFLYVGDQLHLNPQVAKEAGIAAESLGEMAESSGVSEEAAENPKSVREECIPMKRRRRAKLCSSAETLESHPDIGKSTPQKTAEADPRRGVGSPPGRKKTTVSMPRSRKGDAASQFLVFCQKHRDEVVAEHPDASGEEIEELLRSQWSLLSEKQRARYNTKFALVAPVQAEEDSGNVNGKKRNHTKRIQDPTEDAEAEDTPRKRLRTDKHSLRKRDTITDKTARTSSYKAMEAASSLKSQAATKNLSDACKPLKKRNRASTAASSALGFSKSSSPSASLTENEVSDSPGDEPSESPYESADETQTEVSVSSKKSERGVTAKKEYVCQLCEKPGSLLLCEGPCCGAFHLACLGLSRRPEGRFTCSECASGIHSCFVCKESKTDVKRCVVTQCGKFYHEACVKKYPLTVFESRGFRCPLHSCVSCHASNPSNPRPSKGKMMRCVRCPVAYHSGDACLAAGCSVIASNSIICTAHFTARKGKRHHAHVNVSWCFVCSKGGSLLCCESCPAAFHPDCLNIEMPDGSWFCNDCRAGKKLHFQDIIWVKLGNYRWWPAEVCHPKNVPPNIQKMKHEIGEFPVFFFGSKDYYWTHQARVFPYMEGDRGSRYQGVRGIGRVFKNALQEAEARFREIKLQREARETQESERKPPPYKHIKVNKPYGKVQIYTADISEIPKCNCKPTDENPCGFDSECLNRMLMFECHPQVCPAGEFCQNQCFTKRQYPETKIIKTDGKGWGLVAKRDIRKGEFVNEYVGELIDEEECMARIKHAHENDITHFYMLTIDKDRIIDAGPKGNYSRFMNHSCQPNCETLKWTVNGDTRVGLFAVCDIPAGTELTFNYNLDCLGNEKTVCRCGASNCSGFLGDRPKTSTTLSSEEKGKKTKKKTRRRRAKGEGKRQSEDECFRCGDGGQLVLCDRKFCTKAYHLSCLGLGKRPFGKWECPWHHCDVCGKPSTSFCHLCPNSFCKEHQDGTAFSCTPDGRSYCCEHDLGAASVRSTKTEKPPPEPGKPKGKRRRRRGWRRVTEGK

[38] = molecular target: T4, Kappa-type opioid receptor (Homo sapiens, UniProt P41145); assay: SAR analysis of Antagonists of the Kappa Opioid Receptor (KOR) using an Image-Based Assay - Set 3. [Related pubchem assays (depositor defined):AID1777, AID1785]; type: functional
[39] = molecular target: T4, Kappa-type opioid receptor; assay: SAR analysis of small molecule antagonists of the kappa opioid receptor via a luminescent beta-arrestin assay - Set 3. [Related pubchem assays (depositor defined):AID1777, AID1778, AID1785, AID1786, AID1966, AID2133, AID2136, AID2285, AID2495]; type: functional
[40] = molecular target: Delta-type opioid receptor (Homo sapiens, UniProt P41143); assay: SAR Analysis of Antagonists of the DOR Receptor using an Image-Based Assay - Set 3. [Related pubchem assays (depositor defined):AID1777, AID1785]; type: functional;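 note: U2OS cells expressing DOR1 and beta-arrestin GFP stimulated with 100 nM SNC80; imaging of GFP-tagged beta-arrestin moving into spots after receptor activation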
[41] = molecular target: Mu-type opioid receptor (Homo sapiens, UniProt P35372); assay: SAR Analysis of Antagonists of the MOR Receptor using an Image-Based Assay - Set 3. [Related pubchem assays (depositor defined):AID1777, AID1785, AID1786, AID1966, AID2133, AID2136, AID2284, AID2285, AID2420]; type: functional
[42] = molecular target: Tyrosine-protein phosphatase non-receptor type 7 (Homo sapiens, UniProt P35236); assay: SAR analysis of chemical inhibitors of HePTP using a Fluorescent assay - Set 2. [Related pubchem assays (depositor defined):AID1059, AID1077, AID1661, AID2085, AID521]; type: functional
[43] = molecular target: Dual specificity protein phosphatase 3 (Homo sapiens, UniProt P51452); assay: SAR VHR1 Fluorescent Assay for In Vitro dose response studies Set 2. [Related pubchem assays (depositor defined):AID1654, AID1661, AID1878]; type: functional

T4 sequence (P41145 whole entry): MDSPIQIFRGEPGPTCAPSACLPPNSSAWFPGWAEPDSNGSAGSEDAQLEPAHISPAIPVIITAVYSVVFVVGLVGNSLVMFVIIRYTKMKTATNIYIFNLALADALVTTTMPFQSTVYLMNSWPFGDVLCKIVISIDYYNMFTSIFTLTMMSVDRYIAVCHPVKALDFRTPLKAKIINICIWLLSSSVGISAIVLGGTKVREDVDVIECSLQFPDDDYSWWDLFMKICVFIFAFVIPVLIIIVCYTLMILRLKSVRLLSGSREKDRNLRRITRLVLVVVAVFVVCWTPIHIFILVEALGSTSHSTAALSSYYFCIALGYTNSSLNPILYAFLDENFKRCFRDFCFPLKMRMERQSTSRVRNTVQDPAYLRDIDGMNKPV
T2 sequence (Q00975 whole entry): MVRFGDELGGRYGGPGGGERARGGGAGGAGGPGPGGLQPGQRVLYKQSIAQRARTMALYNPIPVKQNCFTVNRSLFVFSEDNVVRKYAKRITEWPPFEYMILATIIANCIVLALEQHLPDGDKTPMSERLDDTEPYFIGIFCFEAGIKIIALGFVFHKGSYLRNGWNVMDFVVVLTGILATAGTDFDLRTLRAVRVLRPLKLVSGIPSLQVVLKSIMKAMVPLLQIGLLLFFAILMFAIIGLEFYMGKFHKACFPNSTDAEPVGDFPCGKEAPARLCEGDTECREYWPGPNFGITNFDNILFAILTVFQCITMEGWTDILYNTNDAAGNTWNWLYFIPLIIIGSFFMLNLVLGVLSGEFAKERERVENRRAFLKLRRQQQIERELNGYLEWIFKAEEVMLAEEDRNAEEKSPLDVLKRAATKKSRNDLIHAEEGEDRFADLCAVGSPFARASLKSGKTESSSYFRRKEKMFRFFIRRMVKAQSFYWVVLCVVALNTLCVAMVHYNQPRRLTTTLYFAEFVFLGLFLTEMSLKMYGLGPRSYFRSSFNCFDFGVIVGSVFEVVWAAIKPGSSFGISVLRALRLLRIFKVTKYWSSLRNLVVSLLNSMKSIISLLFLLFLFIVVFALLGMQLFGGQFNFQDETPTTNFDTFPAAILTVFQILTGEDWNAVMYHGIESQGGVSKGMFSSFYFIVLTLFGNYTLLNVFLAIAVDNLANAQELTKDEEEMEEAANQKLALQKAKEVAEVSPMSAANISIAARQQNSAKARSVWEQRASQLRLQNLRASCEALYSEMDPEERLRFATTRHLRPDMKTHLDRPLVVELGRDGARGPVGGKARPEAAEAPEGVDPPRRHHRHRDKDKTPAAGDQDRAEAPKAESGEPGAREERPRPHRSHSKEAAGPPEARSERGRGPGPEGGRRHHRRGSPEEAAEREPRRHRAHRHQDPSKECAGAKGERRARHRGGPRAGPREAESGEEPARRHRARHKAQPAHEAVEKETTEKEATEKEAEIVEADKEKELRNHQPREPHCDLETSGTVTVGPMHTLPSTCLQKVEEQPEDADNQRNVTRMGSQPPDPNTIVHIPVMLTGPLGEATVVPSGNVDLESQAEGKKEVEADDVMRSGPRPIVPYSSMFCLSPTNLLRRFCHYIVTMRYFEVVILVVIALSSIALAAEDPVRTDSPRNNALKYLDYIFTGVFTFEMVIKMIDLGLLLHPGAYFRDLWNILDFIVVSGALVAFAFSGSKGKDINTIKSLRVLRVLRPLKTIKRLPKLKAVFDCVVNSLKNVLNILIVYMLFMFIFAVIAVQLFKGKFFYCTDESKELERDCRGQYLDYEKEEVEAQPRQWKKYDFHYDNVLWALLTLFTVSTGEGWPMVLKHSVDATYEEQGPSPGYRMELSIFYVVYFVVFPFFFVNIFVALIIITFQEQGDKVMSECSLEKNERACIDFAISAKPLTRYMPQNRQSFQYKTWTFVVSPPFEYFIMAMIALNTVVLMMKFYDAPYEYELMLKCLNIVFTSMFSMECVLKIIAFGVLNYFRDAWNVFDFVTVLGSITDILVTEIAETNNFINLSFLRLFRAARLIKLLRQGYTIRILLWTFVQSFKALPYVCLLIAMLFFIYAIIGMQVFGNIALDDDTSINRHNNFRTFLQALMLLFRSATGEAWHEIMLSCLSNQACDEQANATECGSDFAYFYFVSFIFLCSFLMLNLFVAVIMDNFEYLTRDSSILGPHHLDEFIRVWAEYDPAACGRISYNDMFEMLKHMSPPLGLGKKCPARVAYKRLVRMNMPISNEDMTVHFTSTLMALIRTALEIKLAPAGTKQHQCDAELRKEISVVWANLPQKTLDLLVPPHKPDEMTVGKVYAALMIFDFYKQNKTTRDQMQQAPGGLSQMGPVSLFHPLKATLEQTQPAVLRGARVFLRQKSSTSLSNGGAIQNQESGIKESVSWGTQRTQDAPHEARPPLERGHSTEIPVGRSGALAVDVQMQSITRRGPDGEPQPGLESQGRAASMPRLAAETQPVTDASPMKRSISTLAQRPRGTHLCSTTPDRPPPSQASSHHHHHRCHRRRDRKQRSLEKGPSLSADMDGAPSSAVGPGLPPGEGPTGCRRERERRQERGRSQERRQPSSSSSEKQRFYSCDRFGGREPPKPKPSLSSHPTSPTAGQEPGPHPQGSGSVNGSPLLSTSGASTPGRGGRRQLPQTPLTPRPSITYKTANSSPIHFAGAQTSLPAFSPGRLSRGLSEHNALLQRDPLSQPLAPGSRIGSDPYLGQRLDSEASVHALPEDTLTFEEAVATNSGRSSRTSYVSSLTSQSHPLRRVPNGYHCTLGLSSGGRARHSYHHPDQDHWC
T2 sequence (Q02410 whole entry): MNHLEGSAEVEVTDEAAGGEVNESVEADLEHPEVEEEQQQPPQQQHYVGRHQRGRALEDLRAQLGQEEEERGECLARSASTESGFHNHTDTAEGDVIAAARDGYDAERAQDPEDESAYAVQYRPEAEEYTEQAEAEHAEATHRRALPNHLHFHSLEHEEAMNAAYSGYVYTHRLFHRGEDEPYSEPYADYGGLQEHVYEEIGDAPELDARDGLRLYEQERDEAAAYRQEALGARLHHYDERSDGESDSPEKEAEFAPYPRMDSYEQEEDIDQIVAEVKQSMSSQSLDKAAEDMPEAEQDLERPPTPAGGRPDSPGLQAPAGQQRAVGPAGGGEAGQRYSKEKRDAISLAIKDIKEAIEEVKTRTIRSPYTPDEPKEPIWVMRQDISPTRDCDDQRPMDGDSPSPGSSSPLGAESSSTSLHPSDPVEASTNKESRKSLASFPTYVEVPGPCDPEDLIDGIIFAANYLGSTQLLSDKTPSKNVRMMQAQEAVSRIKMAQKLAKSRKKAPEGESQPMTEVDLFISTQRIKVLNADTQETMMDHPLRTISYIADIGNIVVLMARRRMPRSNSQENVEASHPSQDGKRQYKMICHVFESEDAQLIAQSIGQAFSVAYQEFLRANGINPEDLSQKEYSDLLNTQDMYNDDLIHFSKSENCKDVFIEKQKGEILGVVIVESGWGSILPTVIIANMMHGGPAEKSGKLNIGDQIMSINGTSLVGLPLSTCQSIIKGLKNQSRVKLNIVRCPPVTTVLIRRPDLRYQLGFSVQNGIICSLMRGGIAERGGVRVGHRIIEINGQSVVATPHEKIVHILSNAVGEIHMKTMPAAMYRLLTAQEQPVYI
Sequence of Protein S100-A4 (P26447 whole entry): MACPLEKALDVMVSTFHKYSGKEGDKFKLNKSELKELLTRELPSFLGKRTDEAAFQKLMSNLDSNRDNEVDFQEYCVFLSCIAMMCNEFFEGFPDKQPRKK
Sequence of Tyrosine-protein phosphatase non-receptor type 7 (P35236 whole entry): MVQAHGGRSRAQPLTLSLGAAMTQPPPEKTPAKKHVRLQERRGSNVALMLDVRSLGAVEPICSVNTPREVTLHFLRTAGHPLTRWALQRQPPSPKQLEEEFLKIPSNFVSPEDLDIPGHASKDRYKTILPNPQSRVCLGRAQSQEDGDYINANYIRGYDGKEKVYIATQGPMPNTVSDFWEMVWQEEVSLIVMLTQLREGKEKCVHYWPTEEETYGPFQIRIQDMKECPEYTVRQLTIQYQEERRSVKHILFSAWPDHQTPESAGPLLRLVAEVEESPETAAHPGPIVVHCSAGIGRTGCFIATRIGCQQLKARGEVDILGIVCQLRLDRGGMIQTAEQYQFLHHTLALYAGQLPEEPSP
Sequence of Integrin alpha-4 (P13612 whole entry): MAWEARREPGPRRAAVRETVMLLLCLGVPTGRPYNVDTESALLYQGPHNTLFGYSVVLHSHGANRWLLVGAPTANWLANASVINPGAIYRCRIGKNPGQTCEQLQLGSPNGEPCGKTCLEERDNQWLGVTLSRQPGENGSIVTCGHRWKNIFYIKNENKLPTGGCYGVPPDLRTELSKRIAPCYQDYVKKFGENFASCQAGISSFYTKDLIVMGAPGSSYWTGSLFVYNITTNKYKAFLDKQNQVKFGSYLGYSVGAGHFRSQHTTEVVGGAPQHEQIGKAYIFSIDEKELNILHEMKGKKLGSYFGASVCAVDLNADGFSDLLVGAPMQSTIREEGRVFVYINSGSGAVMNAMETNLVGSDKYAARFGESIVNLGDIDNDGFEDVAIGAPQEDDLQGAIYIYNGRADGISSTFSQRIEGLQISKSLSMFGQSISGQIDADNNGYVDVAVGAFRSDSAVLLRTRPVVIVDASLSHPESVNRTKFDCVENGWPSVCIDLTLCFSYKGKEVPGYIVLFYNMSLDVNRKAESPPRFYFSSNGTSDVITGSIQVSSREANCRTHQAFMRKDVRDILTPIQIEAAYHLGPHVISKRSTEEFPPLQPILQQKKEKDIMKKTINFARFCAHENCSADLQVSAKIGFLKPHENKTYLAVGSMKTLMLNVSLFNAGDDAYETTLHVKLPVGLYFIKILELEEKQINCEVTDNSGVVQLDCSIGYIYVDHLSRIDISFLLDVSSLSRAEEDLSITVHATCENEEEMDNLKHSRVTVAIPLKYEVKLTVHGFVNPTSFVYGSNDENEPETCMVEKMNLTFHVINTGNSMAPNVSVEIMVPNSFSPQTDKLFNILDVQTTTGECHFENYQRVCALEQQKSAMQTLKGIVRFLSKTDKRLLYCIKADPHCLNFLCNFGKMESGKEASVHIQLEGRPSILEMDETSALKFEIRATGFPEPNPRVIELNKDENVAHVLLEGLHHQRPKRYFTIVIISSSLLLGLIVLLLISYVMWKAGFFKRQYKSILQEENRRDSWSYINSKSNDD

With `Cc1ccc(/C=N/NC2=NC(=O)C(CC(=O)Nc3ccc(Cl)cc3)S2)o1` (stereo not drawn) the EC50 [1] was 15.2 µM (active).

In the case of `COC(=O)c1cc(-c2ccc(C)o2)nc2ccccc12`, the IC50 [2] is reported as 8.68 µM (active), the IC50 [3] is reported as 8.7 µM (active) and the IC50 [4] is reported as 18 µM (active).

In the case of `COc1cccc(-c2sc3ccccc3c2-c2ccc(OCCN(C)C)cc2)c1`, the AC50 [5] is reported as 7.82 µM (active), the EC50 [6] is reported as > 3.3 µM (active) and the AC50 [7] is reported as 3.29 µM (active). For the same molecule, the AC50 [8] was 11.7 µM (active), the AC50 [9] was 13 µM (active) and the IC50 [10] was > 20 µM (inactive). For the same molecule, the AC50 [11] was 15.2 µM (active), the EC50 [12] was 29.1 µM (active) and the AC50 [13] was 8.01 µM (active).

For `CC(/C=C/c1ccco1)=N/NC(=O)Cc1cccs1`, the IC50 [14] was 23.6 µM (active), the IC50 [15] was 18.9 µM (active) and the IC50 [16] was > 100 µM (inactive). For the same molecule, the IC50 [17] was 24.6 µM (active).

With `CCN(CC)c1ccc(/C=C/c2ccc3ccc(OC)cc3[n+]2CC)cc1` the EC50 [18] was 23 nM (active), the EC50 [19] was 6.78 µM (active) and the IC50 [20] was 1.9 µM (active). For the same molecule, the EC50 [21] was 5.54 µM (active), the EC50 [22] was 2.82 µM (active) and the EC50 [23] was < 100 nM (active). The AC50 [24] was 1.12 µM (active), the EC50 [25] was > 32 µM (inactive) and the IC50 [26] was 2.2 µM (active). The EC50 [27] was 2.25 µM (active), the EC50 [28] was > 160 µM (inconclusive) and the EC50 [29] was < 30 nM (active). For the same molecule, the IC50 [30] was > 80 µM (inactive), the EC50 [31] was 3.64 µM (active) and the EC50 [32] was 732 nM (inconclusive). The IC50 [33] was > 20 µM (inactive), the IC50 [34] was 9.34 µM (active) and the EC50 [35] was 892 nM (inconclusive). For the same molecule, the IC50 [36] was 17.3 µM (active) and the AC50 [37] was 17.4 µM (active).

For `COc1ccc(S(=O)(=O)NCc2ccc(C(=O)NCCN(Cc3ccccc3)C(C)C)cc2)cc1`, the IC50 [38] was 806 nM (active), the IC50 [39] was 2.63 µM (active) and the IC50 [40] was > 32 µM (inactive). The IC50 [41] was 9.6 µM (active).

For `CC(C)(C)c1cc(C(=S)NCc2ccc(F)c(C(F)(F)F)c2)cc(C(C)(C)C)c1`, the IC50 [42] was 27 µM (active) and the IC50 [43] was 67.4 µM (active).
